Experiment: bioequivalence with a commercial form for oral administration
Type: in vivo
Settings: mixture of diastereoisomers, diastereoisomeric ratio (B/A+B) of 0.5 to 0.6

bioequivalence with a commercial form: bioequivalent
Compound: COCC1=C(C(=O)OC(C)OC(=O)OC(C)C)N2C(=O)[C@@H](NC(=O)/C(=N\OC)c3csc(N)n3)C2SC1 (mixture of isomers) [cefpodoxim proxetil, 7-[2-(2-aminothiazol-4-yl)-2-(Z)-(methoxyimino)acetamido]-3-methoxymethyl-3-cephem-4-carboxylic acid-1-(isopropoxycarbonyloxy)ethyl ester]

— patent publication US6489470B1, “Process for the preparation of cefpodoxime proxetil diastereoisomers” (Biochemie Gesellschaft m.b.H., priority 1998, dated 2002)
